Tests used:
Details in all cases: exposure time: 72 h
U118 = system: U118
Protocol: (§1)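 Glioma cell lines and primary cultures were treated with single drugs in a nine-step threefold dilution series, about 72 h. Viability was read by CellTiter-Glo and normalised to untreated controls. Absolute IC50 was fitted in GraphPad Prism; values beyond the tested dose range are censored at the block's top or lowest dose.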

U251 = system: U251
Protocol: as §1

SF539 = system: SF539
Protocol: as §1

CAS-1 = system: CAS-1
Protocol: as §1

KNS42 = system: KNS42
Protocol: as §1

AM38 = system: AM38
Protocol: as §1

SNB75 = system: SNB75
Protocol: as §1

U87 = system: U87
Protocol: as §1

SF268 = system: SF268
Protocol: as §1

T98 = system: T98
Protocol: as §1

Row | SMILES | IC50 (absolute, viability) (U251) | IC50 (absolute, viability) (U87) | IC50 (absolute, viability) (U118) | IC50 (absolute, viability) (SF539) | IC50 (absolute, viability) (CAS-1) | IC50 (absolute, viability) (KNS42) | IC50 (absolute, viability) (AM38) | IC50 (absolute, viability) (SNB75) | IC50 (absolute, viability) (SF268) | IC50 (absolute, viability) (T98)
1 | CCC(=O)N1CCN(c2ccc(-n3c(=O)ccc4cnc5ccc(-c6cnc7ccccc7c6)cc5c43)cc2C(F)(F)F)CC1 [Torin1] | 199 nM | 17.4 nM | 27.4 nM | 28 nM | 28.5 nM | 434 nM | 4.18 nM | 19.1 nM | 74.6 nM | 25.1 nM
2 | CC(=O)O[C@@]12CO[C@@H]1C[C@H](O)[C@@]1(C)C(=O)[C@H](O)C3=C(C)[C@@H](OC(=O)[C@H](O)[C@@H](NC(=O)OC(C)(C)C)c4ccccc4)C[C@@](O)([C@@H](OC(=O)c4ccccc4)[C@H]21)C3(C)C [Docetaxel] | 0.0604 nM | 2.73 nM | 10.1 nM | 0.628 nM | 43.7 nM | 4.38 nM | 1.28 nM | 1.67 nM | 2.31 nM | 0.818 nM

The next lines start with results.

Row | IC50 (absolute, viability) (U251) | IC50 (absolute, viability) (U87) | SMILES | IC50 (absolute, viability) (U118) | IC50 (absolute, viability) (SF539) | IC50 (absolute, viability) (CAS-1) | IC50 (absolute, viability) (KNS42) | IC50 (absolute, viability) (AM38) | IC50 (absolute, viability) (SNB75) | IC50 (absolute, viability) (SF268) | IC50 (absolute, viability) (T98)
3 | 6150 nM | 7180 nM | C=CCc1cccc(/C=N/NC(=O)CN2CCN(Cc3ccccc3)CC2)c1O [PAC-1] | 5440 nM | 3060 nM | > 100000 nM | 17800 nM | 404 nM | 2980 nM | 2970 nM | 1710 nM
4 | 149 nM | 27.9 nM | Nc1ccn([C@@H]2O[C@H](CO)[C@@H](O)C2(F)F)c(=O)n1 [Gemcitabine] | 320 nM | 182 nM | 206 nM | 859 nM | 145 nM | 148 nM | 210 nM | 450 nM
5 | 5070 nM | 6690 nM | Cc1cc([C@@H](C)Nc2ccccc2C(=O)O)c2nc(N3CCOCC3)cc(=O)n2c1 [AZD6482] | 22000 nM | 4860 nM | 3150 nM | 41400 nM | 8350 nM | 9910 nM | 13900 nM | 8390 nM
